According to the supplement of paper PMC10307832:

Experiments:
Experiment in all cases: relative viability (nuclei count vs DMSO), 5 days (fraction); higher = more cells survive
A-427 = system: A-427
How it was run: (§1)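 Five library-drug doses in √10 steps were combined with a fixed anchor-drug dose, or a single drug was given alone, by pin tool to lung cancer cell lines in 1536-well plates the day after seeding. Nuclei were stained and counted after 5 days. Relative viability is the nuclei count in treated wells over that in vehicle wells, taken as the median of duplicate plates.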

HCC-15 = system: HCC-15
How it was run: as §1

HCC-78 = system: HCC-78
How it was run: as §1

HOP-62 = system: HOP-62
How it was run: as §1

LC-2-ad = system: LC-2-ad
How it was run: as §1

LOU-NH91 = system: LOU-NH91
How it was run: as §1

LXF-289 = system: LXF-289
How it was run: as §1

NCI-H1734 = system: NCI-H1734
How it was run: as §1

NCI-H1755 = system: NCI-H1755
How it was run: as §1

NCI-H1792 = system: NCI-H1792
How it was run: as §1

NCI-H1915 = system: NCI-H1915
How it was run: as §1

NCI-H1975 = system: NCI-H1975
How it was run: as §1

NCI-H2126 = system: NCI-H2126
How it was run: as §1

NCI-H2228 = system: NCI-H2228
How it was run: as §1

NCI-H2342 = system: NCI-H2342
How it was run: as §1

NCI-H2347 = system: NCI-H2347
How it was run: as §1

NCI-H358 = system: NCI-H358
How it was run: as §1

NCI-H460 = system: NCI-H460
How it was run: as §1

NCI-H647 = system: NCI-H647
How it was run: as §1

PC-3 [JPC-3] = system: PC-3 [JPC-3]
How it was run: as §1

RERF-LC-KJ = system: RERF-LC-KJ
How it was run: as §1

SK-LU-1 = system: SK-LU-1
How it was run: as §1

SW 1573 = system: SW 1573
How it was run: as §1

Which relative viability (A-427; first compound 0.08 µM) does the source give for Oc1nc(-c2ccc(C(F)(F)F)cc2)nc2c1CSCC2 [XAV939] + N=C(N)NC(=N)NCCc1ccccc1 [Phenformin] (partner 250 µM) here?
The relative viability was 0.365.

What about the relative viability (A-427; first compound 0.253 µM) of the same compound?
Its relative viability is 0.328.

What about the relative viability (A-427; first compound 0.8 µM) of the same compound?
Its relative viability is 0.314.

What about the relative viability (A-427; first compound 2.53 µM) of the same compound?
Its relative viability is 0.294.

And the relative viability (HCC-15; first compound 0.08 µM)?
Its relative viability is 0.634.

What about the relative viability (HCC-15; first compound 0.253 µM) of the same compound?
Its relative viability is 0.457.

What about the relative viability (HCC-15; first compound 0.8 µM) of the same compound?
The relative viability was 0.481.

And the relative viability (HCC-15; first compound 2.53 µM)?
Its relative viability is 0.481.

And the relative viability (HCC-78; first compound 0.08 µM)?
The relative viability was 0.711.

And the relative viability (HCC-78; first compound 0.253 µM)?
The relative viability was 0.62.

What about the relative viability (HCC-78; first compound 0.8 µM) of the same compound?
Its relative viability is 0.66.

What about the relative viability (HCC-78; first compound 2.53 µM) of the same compound?
The relative viability was 0.516.

What about the relative viability (HOP-62; first compound 0.08 µM) of the same compound?
Its relative viability is 0.8.

What about the relative viability (HOP-62; first compound 0.253 µM) of the same compound?
The relative viability was 0.623.

What about the relative viability (HOP-62; first compound 0.8 µM) of the same compound?
The relative viability was 0.646.

And the relative viability (HOP-62; first compound 2.53 µM)?
The relative viability was 0.593.

And the relative viability (LC-2-ad; first compound 0.08 µM)?
The relative viability was 0.638.

And the relative viability (LC-2-ad; first compound 0.253 µM)?
The relative viability was 0.571.

What about the relative viability (LC-2-ad; first compound 0.8 µM) of the same compound?
Its relative viability is 0.569.

What about the relative viability (LC-2-ad; first compound 2.53 µM) of the same compound?
Its relative viability is 0.575.

And the relative viability (LOU-NH91; first compound 0.08 µM)?
Its relative viability is 0.672.

And the relative viability (LOU-NH91; first compound 0.253 µM)?
The relative viability was 0.627.

And the relative viability (LOU-NH91; first compound 0.8 µM)?
The relative viability was 0.702.

And the relative viability (LOU-NH91; first compound 2.53 µM)?
Its relative viability is 0.618.

What about the relative viability (LXF-289; first compound 0.08 µM) of the same compound?
Its relative viability is 0.556.

And the relative viability (LXF-289; first compound 0.253 µM)?
Its relative viability is 0.48.

What about the relative viability (LXF-289; first compound 0.8 µM) of the same compound?
The relative viability was 0.539.

And the relative viability (LXF-289; first compound 2.53 µM)?
Its relative viability is 0.546.

What about the relative viability (NCI-H1734; first compound 0.08 µM) of the same compound?
The relative viability was 0.44.

What about the relative viability (NCI-H1734; first compound 0.253 µM) of the same compound?
Its relative viability is 0.386.

And the relative viability (NCI-H1734; first compound 0.8 µM)?
Its relative viability is 0.337.

What about the relative viability (NCI-H1734; first compound 2.53 µM) of the same compound?
The relative viability was 0.393.

What about the relative viability (NCI-H1755; first compound 0.08 µM) of the same compound?
Its relative viability is 0.621.

What about the relative viability (NCI-H1755; first compound 0.253 µM) of the same compound?
Its relative viability is 0.543.

And the relative viability (NCI-H1755; first compound 0.8 µM)?
The relative viability was 0.614.

What about the relative viability (NCI-H1755; first compound 2.53 µM) of the same compound?
Its relative viability is 0.563.

And the relative viability (NCI-H1792; first compound 0.08 µM)?
The relative viability was 0.432.

What about the relative viability (NCI-H1792; first compound 0.253 µM) of the same compound?
The relative viability was 0.308.

What about the relative viability (NCI-H1792; first compound 0.8 µM) of the same compound?
Its relative viability is 0.303.

And the relative viability (NCI-H1792; first compound 2.53 µM)?
Its relative viability is 0.331.

What about the relative viability (NCI-H1915; first compound 0.08 µM) of the same compound?
Its relative viability is 0.384.

What about the relative viability (NCI-H1915; first compound 0.253 µM) of the same compound?
The relative viability was 0.258.

And the relative viability (NCI-H1915; first compound 0.8 µM)?
Its relative viability is 0.377.

What about the relative viability (NCI-H1915; first compound 2.53 µM) of the same compound?
Its relative viability is 0.369.

And the relative viability (NCI-H1975; first compound 0.08 µM)?
Its relative viability is 0.409.

And the relative viability (NCI-H1975; first compound 0.253 µM)?
Its relative viability is 0.42.

What about the relative viability (NCI-H1975; first compound 0.8 µM) of the same compound?
The relative viability was 0.382.

What about the relative viability (NCI-H1975; first compound 2.53 µM) of the same compound?
Its relative viability is 0.37.

And the relative viability (NCI-H2126; first compound 0.08 µM)?
The relative viability was 0.577.

And the relative viability (NCI-H2126; first compound 0.253 µM)?
The relative viability was 0.494.

What about the relative viability (NCI-H2126; first compound 0.8 µM) of the same compound?
The relative viability was 0.48.

What about the relative viability (NCI-H2126; first compound 2.53 µM) of the same compound?
The relative viability was 0.516.

And the relative viability (NCI-H2228; first compound 0.08 µM)?
Its relative viability is 0.3.

What about the relative viability (NCI-H2228; first compound 0.253 µM) of the same compound?
The relative viability was 0.328.

What about the relative viability (NCI-H2228; first compound 0.8 µM) of the same compound?
Its relative viability is 0.296.

And the relative viability (NCI-H2228; first compound 2.53 µM)?
The relative viability was 0.252.

And the relative viability (NCI-H2342; first compound 0.08 µM)?
Its relative viability is 0.555.

And the relative viability (NCI-H2342; first compound 0.253 µM)?
Its relative viability is 0.518.

And the relative viability (NCI-H2342; first compound 0.8 µM)?
The relative viability was 0.552.

What about the relative viability (NCI-H2342; first compound 2.53 µM) of the same compound?
Its relative viability is 0.451.

And the relative viability (NCI-H2347; first compound 0.08 µM)?
The relative viability was 0.396.

And the relative viability (NCI-H2347; first compound 2.53 µM)?
The relative viability was 0.338.

And the relative viability (NCI-H358; first compound 0.08 µM)?
The relative viability was 0.311.

What about the relative viability (NCI-H358; first compound 0.253 µM) of the same compound?
The relative viability was 0.235.

What about the relative viability (NCI-H358; first compound 0.8 µM) of the same compound?
Its relative viability is 0.311.

What about the relative viability (NCI-H358; first compound 2.53 µM) of the same compound?
The relative viability was 0.328.

What about the relative viability (NCI-H460; first compound 0.08 µM) of the same compound?
The relative viability was 0.526.

And the relative viability (NCI-H460; first compound 0.253 µM)?
Its relative viability is 0.408.

What about the relative viability (NCI-H460; first compound 0.8 µM) of the same compound?
Its relative viability is 0.53.

And the relative viability (NCI-H460; first compound 2.53 µM)?
Its relative viability is 0.502.

And the relative viability (NCI-H647; first compound 0.08 µM)?
The relative viability was 0.553.

What about the relative viability (NCI-H647; first compound 0.253 µM) of the same compound?
The relative viability was 0.438.

What about the relative viability (NCI-H647; first compound 0.8 µM) of the same compound?
The relative viability was 0.61.

And the relative viability (NCI-H647; first compound 2.53 µM)?
Its relative viability is 0.28.

And the relative viability (PC-3 [JPC-3]; first compound 0.08 µM)?
Its relative viability is 0.441.

And the relative viability (PC-3 [JPC-3]; first compound 0.253 µM)?
Its relative viability is 0.466.

What about the relative viability (PC-3 [JPC-3]; first compound 0.8 µM) of the same compound?
Its relative viability is 0.474.

What about the relative viability (PC-3 [JPC-3]; first compound 2.53 µM) of the same compound?
The relative viability was 0.441.

What about the relative viability (RERF-LC-KJ; first compound 0.08 µM) of the same compound?
Its relative viability is 0.485.

And the relative viability (RERF-LC-KJ; first compound 0.253 µM)?
Its relative viability is 0.425.

And the relative viability (RERF-LC-KJ; first compound 0.8 µM)?
Its relative viability is 0.442.

And the relative viability (RERF-LC-KJ; first compound 2.53 µM)?
Its relative viability is 0.364.

What about the relative viability (SK-LU-1; first compound 0.08 µM) of the same compound?
Its relative viability is 0.548.

And the relative viability (SK-LU-1; first compound 0.253 µM)?
The relative viability was 0.513.

What about the relative viability (SK-LU-1; first compound 0.8 µM) of the same compound?
Its relative viability is 0.447.

And the relative viability (SK-LU-1; first compound 2.53 µM)?
Its relative viability is 0.556.

And the relative viability (SW 1573; first compound 0.08 µM)?
The relative viability was 0.483.

And the relative viability (SW 1573; first compound 0.253 µM)?
The relative viability was 0.398.

What about the relative viability (SW 1573; first compound 0.8 µM) of the same compound?
Its relative viability is 0.369.

What about the relative viability (SW 1573; first compound 2.53 µM) of the same compound?
Its relative viability is 0.37.
